Data taken from PMC7979765, “trans-Translation inhibitors bind to a novel site on the ribosome and clear Neisseria gonorrhoeae in vivo” (Nature Communications, 2021).
Several values for one entry are separate records, joined by “and”; a condition that tells them apart may be missing. Identical values can stand only once. Like-named read-outs stand apart in the source and are kept apart here.

Experiment: Pharmacokinetic analyses in mice (PO suspension, IV, SC)
Assay type: in vivo, mouse
Protocol: Female CD-1 mice as above were fasted for 2 h prior, and 4 h after dosing. […] […], 3 mice from each group were euthanized by CO2 inhalation, blood was collected by cardiac puncture into K2EDTA collection tubes, and protein was precipitated and analysed by LC/MS-MS for plasma concentrations of MBX-4132. Data were analysed using WinNonLin.
[…] At 0.083, 0.5, 1, 4, 8 and 24 h post dose, blood was collected from 3 mice/group by tail vein or facial bleed into K2EDTA collection tubes, and protein was precipitated and analysed by LC/MS-MS for plasma concentrations of MBX-4132. Sampling was performed serially, with each mouse contributing sample at all time points. Data were analysed using WinNonLin.

**Q.** Which “MBX 4132 Concentrations in Mouse Plasma” value (IV (10 mg/kg), 0.083 hrs, individual animals, 10 mg/kg) does the source give for `O=C(Nc1nnc(-c2ccc(F)cc2)o1)N1CCc2ccccc2C1` [MBX 4132] here?
**A.** The value was 58700 ng/mL and 65700 ng/mL.

**Q.** What about the “MBX 4132 Concentrations in Mouse Plasma” value (IV (10 mg/kg), 0.5 hrs, individual animals, 10 mg/kg) of the same compound?
**A.** Its value is 36200 ng/mL and 32000 ng/mL.

**Q.** What about the “MBX 4132 Concentrations in Mouse Plasma” value (IV (10 mg/kg), 1 hrs, individual animals, 10 mg/kg) of the same compound?
**A.** Its value is 22900 ng/mL and 20200 ng/mL.

**Q.** What about the “MBX 4132 Concentrations in Mouse Plasma” value (IV (10 mg/kg), 4 hrs, individual animals, 10 mg/kg) of the same compound?
**A.** The value was 8580 ng/mL and 6390 ng/mL.

**Q.** What about the “MBX 4132 Concentrations in Mouse Plasma” value (IV (10 mg/kg), 8 hrs, individual animals, 10 mg/kg) of the same compound?
**A.** The value was 3980 ng/mL and 3290 ng/mL.

**Q.** What about the “MBX 4132 Concentrations in Mouse Plasma” value (IV (10 mg/kg), 24 hrs, individual animals, 10 mg/kg) of the same compound?
**A.** The value was 293 ng/mL and 149 ng/mL and 67.4 ng/mL.

**Q.** What about the “MBX 4132 Concentrations in Mouse Plasma” value (PO (10 mg/kg susp.), 0.25 hrs, individual animals, 10 mg/kg) of the same compound?
**A.** The value was 15389 ng/mL and 9102 ng/mL.

**Q.** And the “MBX 4132 Concentrations in Mouse Plasma” value (PO (10 mg/kg susp.), 0.5 hrs, individual animals, 10 mg/kg)?
**A.** Its value is 16019 ng/mL and 12183 ng/mL.

**Q.** And the “MBX 4132 Concentrations in Mouse Plasma” value (PO (10 mg/kg susp.), 1 hrs, individual animals, 10 mg/kg)?
**A.** Its value is 16437 ng/mL and 15902 ng/mL.

**Q.** And the “MBX 4132 Concentrations in Mouse Plasma” value (PO (10 mg/kg susp.), 2 hrs, individual animals, 10 mg/kg)?
**A.** Its value is 10997 ng/mL and 18067 ng/mL.

**Q.** And the “MBX 4132 Concentrations in Mouse Plasma” value (PO (10 mg/kg susp.), 4 hrs, individual animals, 10 mg/kg)?
**A.** The value was 13379 ng/mL and 14121 ng/mL.

**Q.** And the “MBX 4132 Concentrations in Mouse Plasma” value (PO (10 mg/kg susp.), 8 hrs, individual animals, 10 mg/kg)?
**A.** The value was 11230 ng/mL and 9243 ng/mL.

**Q.** And the “MBX 4132 Concentrations in Mouse Plasma” value (PO (10 mg/kg susp.), 24 hrs, individual animals)?
**A.** Its value is under 62.5 ng/mL.

**Q.** What about the “MBX 4132 Concentrations in Mouse Plasma” value (PO (10 mg/kg), 0.083 hrs, individual animals, 10 mg/kg) of the same compound?
**A.** Its value is 809 ng/mL and 1080 ng/mL and 1900 ng/mL.

**Q.** And the “MBX 4132 Concentrations in Mouse Plasma” value (PO (10 mg/kg), 0.5 hrs, individual animals, 10 mg/kg)?
**A.** Its value is 881 ng/mL and 1440 ng/mL and 1770 ng/mL.

**Q.** And the “MBX 4132 Concentrations in Mouse Plasma” value (PO (10 mg/kg), 1 hrs, individual animals, 10 mg/kg)?
**A.** The value was 1490 ng/mL and 1730 ng/mL.

**Q.** And the “MBX 4132 Concentrations in Mouse Plasma” value (PO (10 mg/kg), 4 hrs, individual animals, 10 mg/kg)?
**A.** Its value is 1960 ng/mL and 2880 ng/mL.

**Q.** And the “MBX 4132 Concentrations in Mouse Plasma” value (PO (10 mg/kg), 8 hrs, individual animals, 10 mg/kg)?
**A.** The value was 4940 ng/mL and 6040 ng/mL.

**Q.** And the “MBX 4132 Concentrations in Mouse Plasma” value (PO (10 mg/kg), 24 hrs, individual animals, 10 mg/kg)?
**A.** Its value is 66.5 ng/mL and 26.0 ng/mL and 81.5 ng/mL.

**Q.** And the “MBX 4132 Concentrations in Mouse Plasma” value (SC (10 mg/kg), 0.083 hrs, individual animals, 10 mg/kg)?
**A.** The value was 738 ng/mL and 530 ng/mL and 1090 ng/mL.

**Q.** What about the “MBX 4132 Concentrations in Mouse Plasma” value (SC (10 mg/kg), 0.5 hrs, individual animals, 10 mg/kg) of the same compound?
**A.** The value was 3760 ng/mL and 4140 ng/mL.

**Q.** What about the “MBX 4132 Concentrations in Mouse Plasma” value (SC (10 mg/kg), 1 hrs, individual animals, 10 mg/kg) of the same compound?
**A.** Its value is 3190 ng/mL and 3390 ng/mL.

**Q.** What about the “MBX 4132 Concentrations in Mouse Plasma” value (SC (10 mg/kg), 4 hrs, individual animals, 10 mg/kg) of the same compound?
**A.** The value was 2890 ng/mL and 2390 ng/mL.

**Q.** And the “MBX 4132 Concentrations in Mouse Plasma” value (SC (10 mg/kg), 8 hrs, individual animals, 10 mg/kg)?
**A.** Its value is 2800 ng/mL and 2480 ng/mL.

**Q.** What about the “MBX 4132 Concentrations in Mouse Plasma” value (SC (10 mg/kg), 24 hrs, individual animals, 10 mg/kg) of the same compound?
**A.** Its value is 599 ng/mL and 627 ng/mL.

**Q.** What about the “MBX 4132 Concentrations in Mouse Plasma” value (SC (25 mg/kg), 0.083 hrs, individual animals, 25 mg/kg) of the same compound?
**A.** Its value is 1190 ng/mL and 2170 ng/mL.

**Q.** What about the “MBX 4132 Concentrations in Mouse Plasma” value (SC (25 mg/kg), 0.5 hrs, individual animals, 25 mg/kg) of the same compound?
**A.** Its value is 3170 ng/mL and 5250 ng/mL and 6610 ng/mL.

**Q.** And the “MBX 4132 Concentrations in Mouse Plasma” value (SC (25 mg/kg), 1 hrs, individual animals, 25 mg/kg)?
**A.** Its value is 5270 ng/mL and 5450 ng/mL.

**Q.** What about the “MBX 4132 Concentrations in Mouse Plasma” value (SC (25 mg/kg), 4 hrs, individual animals, 25 mg/kg) of the same compound?
**A.** Its value is 3050 ng/mL and 3600 ng/mL.

**Q.** And the “MBX 4132 Concentrations in Mouse Plasma” value (SC (25 mg/kg), 8 hrs, individual animals, 25 mg/kg)?
**A.** Its value is 3850 ng/mL and 4860 ng/mL.

**Q.** What about the “MBX 4132 Concentrations in Mouse Plasma” value (SC (25 mg/kg), 24 hrs, individual animals, 25 mg/kg) of the same compound?
**A.** Its value is 2190 ng/mL and 1680 ng/mL.

**Q.** What about the concentration at 24 h (female, CD-1, mouse, in vivo, iv, 10 mg/kg, IV (10 mg/kg), 24 hrs, mean of 3 animals, read-out: MBX 4132 Concentrations in Mouse Plasma, Mean) of the same compound?
**A.** The concentration at 24 h was 170 ng/mL.

**Q.** And the concentration at 0.25 h (female, CD-1, mouse, in vivo, po, 10 mg/kg, PO (10 mg/kg susp.), 0.25 hrs, individual animals, read-out: MBX 4132 Concentrations in Mouse Plasma)?
**A.** Its concentration at 0.25 h is 14300 ng/mL.

**Q.** And the concentration at 0.25 h (female, CD-1, mouse, in vivo, po, 10 mg/kg, PO (10 mg/kg susp.), 0.25 hrs, mean of 3 animals, read-out: MBX 4132 Concentrations in Mouse Plasma, Mean)?
**A.** Its concentration at 0.25 h is 12900 ng/mL.

**Q.** And the concentration at 0.5 h (female, CD-1, mouse, in vivo, po, 10 mg/kg, PO (10 mg/kg susp.), 0.5 hrs, individual animals, read-out: MBX 4132 Concentrations in Mouse Plasma)?
**A.** The concentration at 0.5 h was 13900 ng/mL.

**Q.** What about the concentration at 0.5 h (female, CD-1, mouse, in vivo, po, 10 mg/kg, PO (10 mg/kg susp.), 0.5 hrs, mean of 3 animals, read-out: MBX 4132 Concentrations in Mouse Plasma, Mean) of the same compound?
**A.** The concentration at 0.5 h was 14000 ng/mL.

**Q.** And the concentration at 1 h (female, CD-1, mouse, in vivo, po, 10 mg/kg, PO (10 mg/kg susp.), 1 hrs, individual animals, read-out: MBX 4132 Concentrations in Mouse Plasma)?
**A.** The concentration at 1 h was 12100 ng/mL.

**Q.** What about the concentration at 1 h (female, CD-1, mouse, in vivo, po, 10 mg/kg, PO (10 mg/kg susp.), 1 hrs, mean of 3 animals, read-out: MBX 4132 Concentrations in Mouse Plasma, Mean) of the same compound?
**A.** The concentration at 1 h was 14800 ng/mL.

**Q.** What about the concentration at 2 h (female, CD-1, mouse, in vivo, po, 10 mg/kg, PO (10 mg/kg susp.), 2 hrs, individual animals, read-out: MBX 4132 Concentrations in Mouse Plasma) of the same compound?
**A.** The concentration at 2 h was 15000 ng/mL.

**Q.** What about the concentration at 2 h (female, CD-1, mouse, in vivo, po, 10 mg/kg, PO (10 mg/kg susp.), 2 hrs, mean of 3 animals, read-out: MBX 4132 Concentrations in Mouse Plasma, Mean) of the same compound?
**A.** The concentration at 2 h was 14700 ng/mL.

**Q.** And the concentration at 4 h (female, CD-1, mouse, in vivo, po, 10 mg/kg, PO (10 mg/kg susp.), 4 hrs, individual animals, read-out: MBX 4132 Concentrations in Mouse Plasma)?
**A.** The concentration at 4 h was 13300 ng/mL.

**Q.** And the concentration at 4 h (female, CD-1, mouse, in vivo, po, 10 mg/kg, PO (10 mg/kg susp.), 4 hrs, mean of 3 animals, read-out: MBX 4132 Concentrations in Mouse Plasma, Mean)?
**A.** The concentration at 4 h was 13600 ng/mL.

**Q.** What about the concentration at 8 h (female, CD-1, mouse, in vivo, po, 10 mg/kg, PO (10 mg/kg susp.), 8 hrs, individual animals, read-out: MBX 4132 Concentrations in Mouse Plasma) of the same compound?
**A.** The concentration at 8 h was 9290 ng/mL.
